Data: patent US11684614B2, “Formulations of hydroxypyridonate actinide/lanthanide decorporation agents” (priority 2017, dated 2023)

Test: Repeated-treatment efficacy for removing an intravenous dose of 238Pu (excretion, tissue retention, clinical observations), female and male arms
Type: in vivo, Swiss-Webster mice
Details: female mice; for ^238Pu percent increase in excretion, Total Excretion / ^238Pu percent increase in excretion, Total Feces / ^238Pu percent increase in excretion, Total Urine: over untreated control group; for ^238Pu percent tissue reduction, GI Tract / ^238Pu percent tissue reduction, Kidney / ^238Pu percent tissue reduction, Liver / ^238Pu percent tissue reduction, Soft Tissue / ^238Pu percent tissue reduction, Total Body / ^238Pu percent tissue reduction, Total Bone: vs untreated control group
Experimental: The objective of this study was to characterize the efficacy of 3,4,3-L1(1,2-HOPO) at enhancing elimination from an internal plutonium burden in female and male Swiss-Webster mice administered a soluble citrate complex of ^238Pu and treated multiple times, starting at 24 hours after the exposure. Efficacy was evaluated by comparing the tissue contents, urinary and fecal excretions of ^238Pu in treated animals versus untreated animals.
The medical countermeasure 3,4,3-L1(1,2-HOPO) was administered parenterally (ip) or orally (po) via consecutive injections or gavages (six daily or twelve twice daily) starting at 24 hours post contamination at the following four selected doses: 30 μmol/kg ip, 150 μmol/kg po, 300 μmol/kg po, and 600 μmol/kg po (equivalent to respective approximate human doses range of […], using the accepted conversion system of mouse doses into human equivalent doses—HED—based on body surface area). Oral doses also included the permeability enhancer selected during formulation development work.
• Challenge isotope: ^238Pu • Challenge dose: 25 nCi (i.e., approximately 0.8 μCi/kg) • Route of contamination: Intravenous (iv) tail-vein • Route of treatment: Intraperitoneal Injection (ip) or Oral (po) • Frequency of treatment: Multiple (once- or twice-daily for 6 days) doses, starting 24 hr postcontamination • Treatment dose calculation: Dose calculations (mg/kg or μmol/kg) for the decorporation agent were based on the individual body weight measured after contamination. • Study Duration: 11 days, in-life
c. […] Test article and control dose formulations were prepared within 1 day of dose administration, by weighing out the appropriate amount of test article, dispersing in vehicle. For ip solutions, the test article was used alone, while for oral suspensions, a mixture of test article and excipient (90:10, w:w) was used. The pH was adjusted to 7.0-7.4 for ip administration and 5.0-5.5 for oral administration with sterile NaOH. Dose formulations were prepared at room temperature and filter-sterilized. • Storage: 2-8° C.; refrigerated; protected from light. • Characterization: The concentration of each test article formulation was verified by high-performance liquid chromatography-mass spectrometry. • Test Article Handling: Test, reference, and control article formulations were handled with the use of eye protection, gloves, and a protective laboratory coat. • Correct Dose Assurance: The test article was weighed with calibrated balances. The administration of each dose formulation was properly documented, and the amount administered to each animal recorded.
e. Experimental Procedures (In-Life Evaluations and Euthanasia) • Contamination: Single administration by intravenous (iv) tail-vein injection (0.2 mL injection volume) under isoflurane anesthesia. Three standard 0.2 mL injections were performed into polyethylene bottles and pre-loaded with aliquots of concentrated nitric acid on each injection day. Six female and six male mice were culled for necropsy 1 hr post-contamination and were used as standards. A11 standards were processed and counted together with the final samples to allow verification of the contamination dose. • Dose Administration: Single administration by intraperitoneal injection (ip) or oral gavage (po) under isoflurane anesthesia. • Mortality/Morbidity: Assessed at least once daily. • Clinical Observations: Recorded once daily (4 hr post-dose on day of treatment), or more often as clinical signs warranted. […]

[1] = 30 μmol/kg, IP, 11-day necropsy
[2] = 150 μmol/kg, 2 doses PO, 7-day necropsy
[3] = 300 μmol/kg, 1 dose PO, 7-day necropsy
[4] = 300 μmol/kg, 1 dose PO, 11-day necropsy
[5] = 300 μmol/kg, 1 doses PO, 7-day necropsy
[6] = 300 μmol/kg, 2 doses PO, 7-day necropsy
[7] = 300 μmol/kg, PO, 11-day necropsy
[8] = 600 μmol/kg, 1 dose PO, 7-day necropsy
[9] = 600 μmol/kg, 1 dose PO, 11-day necropsy
[10] = 600 μmol/kg, PO, 11-day necropsy

O=C(NCCCN(CCCCN(CCCNC(=O)c1cccc(=O)n1O)C(=O)c1cccc(=O)n1O)C(=O)c1cccc(=O)n1O)c1cccc(=O)n1O [Formulation 343]
^238Pu excretion, Total Excretion, Avg [1]: 79.37 percent recovered dose | ^238Pu excretion, Total Feces, Avg [1]: 41.80 percent recovered dose | ^238Pu excretion, Total Urine, Avg [1]: 37.57 percent recovered dose | ^238Pu retention, GI Tract, Avg [1]: 0.59 percent recovered dose | ^238Pu retention, Kidney, Avg [1]: 0.11 percent recovered dose | ^238Pu retention, Liver, Avg [1]: 2.79 percent recovered dose | ^238Pu retention, Soft Tissue, Avg [1]: 1.40 percent recovered dose | ^238Pu retention, Total Body, Avg [1]: 20.63 percent recovered dose | ^238Pu retention, Total Bone, Avg [1]: 15.74 percent recovered dose | ^238Pu percent increase in excretion, Total Excretion [1]: 157.74% | ^238Pu percent increase in excretion, Total Feces [1]: 146.77% | ^238Pu percent increase in excretion, Total Urine [1]: 172.05% | ^238Pu percent tissue reduction, GI Tract [1]: 55.96% | ^238Pu percent tissue reduction, Kidney [1]: 58.43% | ^238Pu percent tissue reduction, Liver [1]: 76.81% | ^238Pu percent tissue reduction, Soft Tissue [1]: 50.90% | ^238Pu percent tissue reduction, Total Body [1]: 58.48% | ^238Pu percent tissue reduction, Total Bone [1]: 52.58% | ^238Pu excretion, Total Excretion, Avg [2]: 62.18 percent recovered dose | ^238Pu excretion, Total Feces, Avg [2]: 33.16 percent recovered dose | ^238Pu excretion, Total Urine, Avg [2]: 29.02 percent recovered dose | ^238Pu retention, GI Tract, Avg [2]: 1.20 percent recovered dose | ^238Pu retention, Kidney, Avg [2]: 0.23 percent recovered dose | ^238Pu retention, Liver, Avg [2]: 12.83 percent recovered dose | ^238Pu retention, Soft Tissue, Avg [2]: 1.64 percent recovered dose | ^238Pu retention, Total Body, Avg [2]: 37.82 percent recovered dose | ^238Pu retention, Total Bone, Avg [2]: 21.92 percent recovered dose | ^238Pu percent increase in excretion, Total Excretion [2]: 129.85% | ^238Pu percent increase in excretion, Total Feces [2]: 146.48% | ^238Pu percent increase in excretion, Total Urine [2]: 114.93% | ^238Pu percent tissue reduction, GI Tract [2]: 35.66% | ^238Pu percent tissue reduction, Kidney [2]: 43.29% | ^238Pu percent tissue reduction, Liver [2]: 31.41% | ^238Pu percent tissue reduction, Soft Tissue [2]: 19.55% | ^238Pu percent tissue reduction, Total Body [2]: 27.43% | ^238Pu percent tissue reduction, Total Bone [2]: 24.67% | ^238Pu excretion, Total Excretion, Avg [3]: 63.26 percent recovered dose | ^238Pu excretion, Total Feces, Avg [3]: 34.34 percent recovered dose | ^238Pu excretion, Total Urine, Avg [3]: 28.92 percent recovered dose | ^238Pu retention, GI Tract, Avg [3]: 1.20 percent recovered dose | ^238Pu retention, Kidney, Avg [3]: 0.26 percent recovered dose | ^238Pu retention, Liver, Avg [3]: 10.22 percent recovered dose | ^238Pu retention, Soft Tissue, Avg [3]: 1.74 percent recovered dose | ^238Pu retention, Total Body, Avg [3]: 36.74 percent recovered dose | ^238Pu retention, Total Bone, Avg [3]: 23.31 percent recovered dose | ^238Pu percent increase in excretion, Total Excretion [3]: 142.38% | ^238Pu percent increase in excretion, Total Feces [3]: 197.06% | ^238Pu percent increase in excretion, Total Urine [3]: 107.09% | ^238Pu retention, GI Tract, Avg [4]: 1.02 percent recovered dose | ^238Pu retention, Kidney, Avg [4]: 0.17 percent recovered dose | ^238Pu retention, Liver, Avg [4]: 6.02 percent recovered dose | ^238Pu retention, Soft Tissue, Avg [4]: 2.06 percent recovered dose | ^238Pu retention, Total Body, Avg [4]: 28.11 percent recovered dose | ^238Pu retention, Total Bone, Avg [4]: 18.85 percent recovered dose | ^238Pu percent tissue reduction, GI Tract [4]: 25.61% | ^238Pu percent tissue reduction, Kidney [4]: 37.82% | ^238Pu percent tissue reduction, Liver [4]: 55.06% | ^238Pu percent tissue reduction, Soft Tissue [4]: 22.98% | ^238Pu percent tissue reduction, Total Body [4]: 42.51% | ^238Pu percent tissue reduction, Total Bone [4]: 39.58% | ^238Pu percent tissue reduction, GI Tract [5]: 11.06% | ^238Pu percent tissue reduction, Kidney [5]: 20.17% | ^238Pu percent tissue reduction, Liver [5]: 38.39% | ^238Pu percent tissue reduction, Soft Tissue [5]: 25.25% | ^238Pu percent tissue reduction, Total Body [5]: 33.88% | ^238Pu percent tissue reduction, Total Bone [5]: 33.33% | ^238Pu excretion, Total Excretion, Avg [6]: 66.57 percent recovered dose | ^238Pu excretion, Total Feces, Avg [6]: 35.68 percent recovered dose | ^238Pu excretion, Total Urine, Avg [6]: 30.90 percent recovered dose | ^238Pu retention, GI Tract, Avg [6]: 1.25 percent recovered dose | ^238Pu retention, Kidney, Avg [6]: 0.18 percent recovered dose | ^238Pu retention, Liver, Avg [6]: 6.85 percent recovered dose | ^238Pu retention, Soft Tissue, Avg [6]: 1.62 percent recovered dose | ^238Pu retention, Total Body, Avg [6]: 33.43 percent recovered dose | ^238Pu retention, Total Bone, Avg [6]: 23.54 percent recovered dose | ^238Pu percent increase in excretion, Total Excretion [6]: 139.02% | ^238Pu percent increase in excretion, Total Feces [6]: 157.58% | ^238Pu percent increase in excretion, Total Urine [6]: 122.37% | ^238Pu percent tissue reduction, GI Tract [6]: 33.06% | ^238Pu percent tissue reduction, Kidney [6]: 56.34% | ^238Pu percent tissue reduction, Liver [6]: 63.39% | ^238Pu percent tissue reduction, Soft Tissue [6]: 20.76% | ^238Pu percent tissue reduction, Total Body [6]: 35.85% | ^238Pu percent tissue reduction, Total Bone [6]: 19.10% | ^238Pu excretion, Total Excretion, Avg [7]: 71.89 percent recovered dose | ^238Pu excretion, Total Feces, Avg [7]: 37.63 percent recovered dose | ^238Pu excretion, Total Urine, Avg [7]: 34.27 percent recovered dose | ^238Pu percent increase in excretion, Total Excretion [7]: 140.66% | ^238Pu percent increase in excretion, Total Feces [7]: 162.86% | ^238Pu percent increase in excretion, Total Urine [7]: 122.35% | ^238Pu excretion, Total Excretion, Avg [8]: 67.37 percent recovered dose | ^238Pu excretion, Total Feces, Avg [8]: 30.80 percent recovered dose | ^238Pu excretion, Total Urine, Avg [8]: 36.57 percent recovered dose | ^238Pu retention, GI Tract, Avg [8]: 1.24 percent recovered dose | ^238Pu retention, Kidney, Avg [8]: 0.23 percent recovered dose | ^238Pu retention, Liver, Avg [8]: 12.48 percent recovered dose | ^238Pu retention, Soft Tissue, Avg [8]: 1.62 percent recovered dose | ^238Pu retention, Total Body, Avg [8]: 32.63 percent recovered dose | ^238Pu retention, Total Bone, Avg [8]: 17.06 percent recovered dose | ^238Pu percent increase in excretion, Total Excretion [8]: 151.63% | ^238Pu percent increase in excretion, Total Feces [8]: 176.75% | ^238Pu percent increase in excretion, Total Urine [8]: 135.42% | ^238Pu percent tissue reduction, GI Tract [8]: 8.30% | ^238Pu percent tissue reduction, Kidney [8]: 29.85% | ^238Pu percent tissue reduction, Liver [8]: 24.79% | ^238Pu percent tissue reduction, Soft Tissue [8]: 30.25% | ^238Pu percent tissue reduction, Total Body [8]: 41.28% | ^238Pu percent tissue reduction, Total Bone [8]: 51.23% | ^238Pu retention, GI Tract, Avg [9]: 0.83 percent recovered dose | ^238Pu retention, Kidney, Avg [9]: 0.14 percent recovered dose | ^238Pu retention, Liver, Avg [9]: 5.60 percent recovered dose | ^238Pu retention, Soft Tissue, Avg [9]: 2.01 percent recovered dose | ^238Pu retention, Total Body, Avg [9]: 26.78 percent recovered dose | ^238Pu retention, Total Bone, Avg [9]: 18.20 percent recovered dose | ^238Pu percent tissue reduction, GI Tract [9]: 39.39% | ^238Pu percent tissue reduction, Kidney [9]: 48.77% | ^238Pu percent tissue reduction, Liver [9]: 58.17% | ^238Pu percent tissue reduction, Soft Tissue [9]: 24.63% | ^238Pu percent tissue reduction, Total Body [9]: 45.22% | ^238Pu percent tissue reduction, Total Bone [9]: 41.64% | ^238Pu excretion, Total Excretion, Avg [10]: 73.22 percent recovered dose | ^238Pu excretion, Total Feces, Avg [10]: 34.70 percent recovered dose | ^238Pu excretion, Total Urine, Avg [10]: 38.52 percent recovered dose | ^238Pu percent increase in excretion, Total Excretion [10]: 143.25% | ^238Pu percent increase in excretion, Total Feces [10]: 150.20% | ^238Pu percent increase in excretion, Total Urine [10]: 137.53%
